Test results: paper PMC12645998, “Optimization of VE607 to generate analogs with improved neutralization activities against SARS-CoV-2 variants” (Journal of Virology, 2025)

Legend:
[1] = tested on: SARS CoV-2 D614G Spike pseudovirus; format: cell-based
SARS-CoV-2 spike HPM7 = SARS-CoV-2 spike HPM7 (Severe acute respiratory syndrome coronavirus 2, UniProt P0DTC2, A892P/A899P/A942P/F817P/K986P/R682G/R683S/R685S/T883C/V705C/V987P)

Compound	IC50 [1] [µM]	Particles in closed conformation (3 RBD down) (SARS-CoV-2 spike HPM7) [%]	Particles in open conformation (1 RBD up) (SARS-CoV-2 spike HPM7) [%]
O[C@@H](COc1cccc(OC[C@H](O)CN2CCCCC2)c1)CN1CCCCC1 [(R,R)-VE607, reference compound]	0.66		
CN(C)C[C@@H](O)COc1cc(Br)cc(OC[C@H](O)CN(C)C)c1 [Compound 27]	0.78	16.9	68.0
CN1CCN(C[C@@H](O)COc2cc(Br)cc(OC[C@H](O)CN3CCN(C)CC3)c2)CC1 [Compound 30]	1.31		
CCN(C)C[C@@H](O)COc1cc(Br)cc(OC[C@H](O)CN(C)CC)c1 [Compound 33]	1.15		
